Assay results from patent publication US20200397751A1, “Modulation of AMPA/kainate Receptors for the Treatment of Hypoglycemia” (priority 2017, published 2020).

System: isolated rodent islets
Assay: Glucagon secretion by isolated rodent islets in culture at varying glucose concentrations, 1 hr PAM treatment, glucagon by ELISA
Format: cell-based
Protocol: In an in vitro approach, isolated rodent islets maintained in culture in 96-well plates are treated for 1 hr with PAMs. Simultaneous with addition of PAMs, islets are exposed by media exchange to glucose concentrations ranging from hypoglycemic to hyperglycemic: e.g., 2 mM, 6 mM, 12 mM, 18 mM, etc. At the end of a 1 hour PAM treatment in varying glucose concentrations, glucagon levels in each treatment condition are then measured by ELISA.

[1] = euglycemic and hyperglycemic conditions

| SMILES | amount of glucagon released into a culture media by isolated islets [1] | amount of glucagon released into a culture media by isolated islets (hypoglycemic conditions) |
| --- | --- | --- |
| CC(CNS(=O)(=O)C(C)C)c1ccc(-c2ccc(C#N)cc2)cc1 (stereo not drawn) [LY404187] | not | dose-dependently upregulate |
| COc1ccc(C(=O)N2CCCC2=O)cc1 [aniracetam] | not | dose-dependently upregulate |
| O=C1c2cccnc2OC[C@@H]2CCCN12 [ORG26576] | not | dose-dependently upregulate |
